# In patent publication US6814967B2, “Antibodies to cortistatin: neuropeptides, compositions and methods” (The Scripps Research Institute, priority 1996, dated 2004):
# Columns and labels:
# [1] = tested on: somatostatin receptors on GH4 pituitary cells; test: Displacement of 125I-somatostatin-14 bound to GH4 pituitary cells; format: binding; settings: for Kd: GH4 pituitary cells, four independent experiments, read-out: estimated Kd, displacement of 125I-somatostatin-14 binding; for displacement of 125I-somatostatin: GH4 cells, control peptides
# Method: To determine the binding specificity of cortistatin and in view of its similarity to somatostatin, assays to assess the binding of chemically synthesized, linear cortistatin-14 peptide prepared in Example 2 to somatostatin receptors on GH4 pituitary cells were performed.
# GH4 cells, obtained from Dr. Kaare M. Gautvik (University of Oslo) or ATCC, were grown in MEM medium with 12% fetal calf serum in 6-well plates at 10^6 cells/ml. Each well then received 10^6 cpm/ml of ^125I somatostatin-14 (NEN, DuPont, Wilmington, Del.) alone or with increasing concentrations of somatostatin-14 peptide (Sigma) or cortistatin-14 peptide (95%, purified by reverse phase HPLC ranging from 10^−10 M to 10^−6 M. Aprotinin and leupeptin (Sigma; […]) was included as it reduced non-specific binding to 20% of total bound radioactivity. The binding of ^125I somatostatin in the presence of 10^−7 M somatostatin was considered as unspecific binding as described by Schonbrunn et al., J. Biol. Chem., 235:6473-6483 (1978).
# [2] = tested on: endogenous somatostatin receptors expressed by GH4 cells; test: cAMP assay in GH4 cells stimulated with VIP or TRH; format: cell-based
# Method: To investigate whether cortistatin modulates somatostatin receptor activation, the concentration of cyclic AMP (cAMP) was determined following stimulation of GH4 cells with VIP or TRH in the presence or absence of either cortistatin or somatostatin.
# For the cAMP assays, GH4 cells were grown under the same conditions as for the binding assays. The cells were washed with MEM without serum, but containing leupeptin, aprotinin and 1 mM 3-isobutyl-methyl-xantine (IBMX). The cells were pretreated with somatostatin-14 and cortistatin-14 for 15 minutes before VIP at 10^−6 M was added or TRH at 10^−7 M. To each well, ^3H cyclic AMP was added before the content was removed, to calculate recovery. For cAMP measurements, a RIA kit (Amersham, Arlington Heights, Ill.) was used according to the instructions of the manufacturer. Each time point represents 2-4 replicates and the experiments were carried out twice.
# [3] = tested on: hippocampal CA1 pyramidal cells; test: Current-clamp intracellular recording in hippocampal slices; format: cell-based, rat; settings: for time to maximum steady effect (time-to-peak) after onset of the response: hippocampal slice CA1 neurons, superfusion
# Method: Somatostatin is known to hyperpolarize central neurons by increasing potassium conductances as described by Inoue et al., J. Physiol., 407:177-198 (1988), including the voltage-dependent potassium M current (see Moore et al., Science, 239:278-280 (1988) and Jacquin et al., Proc. Natl. Acad. Sci., USA, 85:948-952 (1988)). To complete the characterization of the physiological role of cortistatin, assays were performed to determine whether cortistatin had somatostatin-like effects on hippocampal neurons by means of current- and voltage-clamp recordings in the hippocampal slice preparation.
# Intracellular recordings were obtained in rat hippocampal slices using sharp glass micropipettes as previously described by Schweitzer et al., J. Neurosci., 13:2033-2049 (1993). Recordings were made from 11 hippocampal CA1 pyramidal cells with an average resting membrane potential of −70 Å 1 mV (mean Å s.e.m.) and action potential of 103 Å 2 mV. Current-clamp recording of a CA1 neuron manually depolarized to −65 mV (resting membrane potential was −70 mV) to elicit action potential firing (upward deflections, truncated) is shown in FIG. 6A.
# Superfusion of […] cortistatin-14 peptide (bar above record), prepared as described in Example 3, like somatostatin-14, hyperpolarized these neurons (10 of 11 cells), in association with inhibition of action potential firing, followed by recovery to control levels upon washout of the peptide. Unlike somatostatin, the cortistatin-14-mediated effect developed slowly, reaching a maximum steady effect six to eight minutes after the onset of the response. This contrasted with the time-to-peak of somatostatin′s effect on these neurons under the same experimental conditions that was much shorter (2-3 minutes).
# [4] = tested on: voltage-dependent potassium M current (IM); test: Voltage-clamp recording of M current (IM) relaxation in CA1 neurons; format: cell-based, rat; parameters: dose or concentration left out as unconfirmed; settings: 7 minutes superfusion; CA1 neuron held at −43 mV
# Source text: To determine the mechanism of the cortistatin-induced inhibition, we assessed the effect of cortistatin on the M current (IM), a non-inactivating voltage-dependent potassium current seen in hippocampal neurons as described by Halliwell et al., Brain Res., 250:71-92 (1982).
# In voltage clamp assays, the IM relaxation was observed by applying hyperpolarizing steps (5 to 25 mV) from a holding potential of −43 to −48 mV.
# CA1 pyramidal neurons = test: Population spike amplitudes in CA1 in vivo, iontophoretic application, anesthetized rats; parameters: species or system rat; settings: microiontophoretic application, 1 mg/ml in saline; half-maximal and maximal stimulation; P<0.05
# Method: The inhibitory effects of cortistatin on the excitability of CA1 pyramidal neurons as viewed by population spike (PS) amplitudes was paralleled in vivo in the anesthetized preparation. For the in vivo studies, male Sprague-Dawley rats were anesthetized with halothane (0.9-1.1%). The commisural pathway was stimulated and elicited field potentials in the CA1 region essentially as described by Steffensen et al., Brain Res., 538:46-53 (1991). Cortistatin (1 mg/ml) was dissolved in saline and administered iontophoretically through one barrel of a multibarreled micropipette. […] Asterisks represent significance levels at P<0.05. The data was compiled with software (LabView Instruments, National Instruments, Austin, Tex.) as described by Steffensen et al., Brain Res., 538:46-53 (1991).
# Stimulation of the monosynaptic afferent input to the CA1 region evoked a characteristic population spike (PS) that represents the synchronous firing of pyramidal cells, superimposed on a field synaptic potential waveform as described by Anderson et al., Exp. Brain Res., 13:208-221 (1971).
# [5] = tested on: sleep-wake cycle of the rat; test: Intracerebroventricular administration, EEG and sleep-wake cycle of the rat; format: in vivo
# Source text: As cortistatin is expressed in interneurons located in the cerebral cortex and hippocampus, its effects on cortical measures of neuronal excitability was next determined in vivo. Up to 6 nmoles of HPLC-purified synthetic cortistatin-14 peptide prepared in Example 3 were infused into the brain ventricles of rats (n=5) and recorded the electroencephalogram (EEG) for four hours after peptide injection. […] Standard methodologies for chronic electrophysiological preparation and data acquisition were used. Procedures for EEG recordings and PP studies are as described by Prospero-Garcia et al., Pharmacol. Biochem. Behav., 49:413 (1994) and Steffensen et al., Brain Res., 652:149 (1994).
# FIGS. 7A-1, 7A-2, 7A-3 and 7A-4 show the effects of the intracerebroventricular administration of cortistatin on the sleep-wake cycle of the rat. FIGS. 7A-1, 7A-2, 7A-3 and 7A-4 respectively illustrate wakefulness, slow-wave sleep 1, slow-wave sleep 2 and REM sleep. The effects of the sleep cycle were assessed with cortistatin-14 dosages at 100 ng, 500 ng, […] as plotted from left to right in the bar graphs as shown against saline control. Asterisks represent significance levels of P<0.05; ANOVA.
# hippocampal CA1 neurons = test: Paired-pulse (PP) responses in CA1 neurons in vivo, iontophoretic application; parameters: species or system rat; settings: for effect on PP responses (PP inhibition) in CA1: applied alone iontophoretically, ACh 0.9 M, somatostatin 1.5 mM, 80 ms interstimulus interval
# Source text: Stimulation intensity was adjusted after drug treatment to achieve control PS amplitudes before performing PP studies.
# [6] = tested on: cerebral cortex (visual cortex) local EEG; test: Local EEG activity in visual cortex of anesthetized rats, microiontophoretic application; format: in vivo, rat
# Method: To investigate further whether cortistatin also interacts with cholinergic systems that regulate cortical function, the effects of cortistatin on ACh-induced desynchronization of EEG in the cerebral cortex of anesthetized rats was determined. Thus, ACh and cortistatin was microiontophoretically (100-250 nA) applied on local EEG activity recorded in the visual cortex. For the data shown in FIG. 7G, the results from the experimental groups were derived from averaged EEG spectral activity determinations and expressed as means Å s.e.m. (Asterisk represents significance levels P<0.05 from baseline; two asterisks represent significance levels P<0.05 from ACh; ANOVA).
# [7] = biological target: somatostatin receptor 1 (SSTR1) (Homo sapiens, UniProt P30872); test: Binding studies to cloned somatostatin receptors
# SSTR 2-5 = test: Binding studies to cloned somatostatin receptors; settings: relative to somatostatin
# [8] = peptide alone at 10^−6 M, compared to control
# Chain of somatostatin receptor 1 (SSTR1) (P30872 whole entry, species assumed): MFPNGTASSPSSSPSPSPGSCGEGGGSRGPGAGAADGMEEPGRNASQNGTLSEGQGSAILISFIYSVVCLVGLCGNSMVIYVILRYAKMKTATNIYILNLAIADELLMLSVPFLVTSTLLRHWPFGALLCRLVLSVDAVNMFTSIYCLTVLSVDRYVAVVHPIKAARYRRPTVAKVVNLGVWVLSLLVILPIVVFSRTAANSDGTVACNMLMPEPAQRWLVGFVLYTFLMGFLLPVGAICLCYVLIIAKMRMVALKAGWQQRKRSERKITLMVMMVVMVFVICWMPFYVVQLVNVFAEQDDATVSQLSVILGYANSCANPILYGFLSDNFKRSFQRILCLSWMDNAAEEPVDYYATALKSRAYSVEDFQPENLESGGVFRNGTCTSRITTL
compound,measurement,setting,value
"14-residue peptide of SEQ ID NO 8 (PCKNFFWKTFSSCK), same sequence for rat and mouse, chemically synthesized [cortistatin-14]",Kd,[1],5 nM
same,intracellular concentration of cAMP,[2]; [8],no effect
same,time to maximum steady effect (time-to-peak) after onset of the response,[3],six to eight
same,effect on membrane potential of CA1 neurons,"[3]; superfusion of 1 M, 10 of 11 cells, inhibition of action potential firing, recovery on washout",hyperpolarized
same,increase of the amplitude of the IM relaxation,[4],60%
same,population spike (PS) amplitudes,CA1 pyramidal neurons,significantly decreased
same,EEG cortical slow waves (1-4 Hz),[5]; infused into brain ventricles of rats,dramatic increase
same,spontaneous behavior,"[5]; infused into brain ventricles of rats, compared to saline-injected rats",clear hypoactive behavior
same,share of the four hour recording time in slow-wave sleep,"[5]; intracerebroventricular, 40% in saline-treated control animals",up to 75%
same,paradoxical (REM) sleep,"[5]; intracerebroventricular, highest dose",significant reduction
same,effect on PP responses (PP inhibition) in CA1,hippocampal CA1 neurons,no significant effects
same,effect on the ACh-induced reduction of PP inhibition,"hippocampal CA1 neurons; simultaneous iontophoretic application with ACh, P<0.05",completely antagonized
same,local EEG (averaged EEG power spectra),"[6]; applied alone, 100-250 nA, visual cortex, anesthetized rats",not different from baseline
same,effect of ACh on local EEG (increase in fast frequency activity),[6]; simultaneous electrophoretic application with ACh,effectively prevented
same,affinity for somatostatin receptor 1 (SSTR1),[7],comparable to somatostatin
same,affinity for SSTR 2-5,SSTR 2-5,far lesser affinity
"C[C@H](N)C(=O)NCC(=O)N[C@H]1CSSC[C@@H](C(=O)O)NC(=O)[C@H](CO)NC(=O)[C@H]([C@@H](C)O)NC(=O)[C@H](Cc2ccccc2)NC(=O)[C@H]([C@@H](C)O)NC(=O)[C@H](CCCCN)NC(=O)[C@H](Cc2c[nH]c3ccccc23)NC(=O)[C@H](Cc2ccccc2)NC(=O)[C@H](Cc2ccccc2)NC(=O)[C@H](CC(N)=O)NC(=O)[C@H](CCCCN)NC1=O [somatostatin-14, reference compound]",Kd,[1],5 nM
same,intracellular concentration of cAMP,[2]; [8],no effect
same,time to maximum steady effect (time-to-peak) after onset of the response,[3],2 to 3 min
same,effect on PP responses (PP inhibition) in CA1,hippocampal CA1 neurons,markedly decreased PP inhibition
"thryoid releasing hormone (QHP) [TRH, control peptide and cAMP stimulator (Calbiochem)]",displacement of 125I-somatostatin,[1],did not show any displacement
same,intracellular concentration of cAMP,[2]; peptide alone at 10^−7 M,increased
"vasoactive intestinal peptide (HSDAVFTDNYTRLRKQMAVKKYLNSILN) [VIP, control peptide and cAMP stimulator (Bachem)]",displacement of 125I-somatostatin,[1],did not show any displacement
same,intracellular concentration of cAMP,[2]; [8],increased
